# Reference: patent US8362065B2, “Carbazole carboxamide compounds useful as kinase inhibitors” (Bristol-Myers Squibb Company, priority 2008, dated 2013)
# Where a name gives a salt, the structure may show the parent alone.
# Biological target: T1, human recombinant Btk (Homo sapiens, UniProt Q06187)
# T1 construct: purchased Invitrogen Corporation
# Experiment: Human Recombinant Btk Enzyme Assay
# Format: biochemical
# Conditions: human recombinant Btk 1 nM, ATP 20 μM, 60 min at room temperature; read-out: IC50 for Inhibition of Btk
# T1 sequence (Q06187 whole entry): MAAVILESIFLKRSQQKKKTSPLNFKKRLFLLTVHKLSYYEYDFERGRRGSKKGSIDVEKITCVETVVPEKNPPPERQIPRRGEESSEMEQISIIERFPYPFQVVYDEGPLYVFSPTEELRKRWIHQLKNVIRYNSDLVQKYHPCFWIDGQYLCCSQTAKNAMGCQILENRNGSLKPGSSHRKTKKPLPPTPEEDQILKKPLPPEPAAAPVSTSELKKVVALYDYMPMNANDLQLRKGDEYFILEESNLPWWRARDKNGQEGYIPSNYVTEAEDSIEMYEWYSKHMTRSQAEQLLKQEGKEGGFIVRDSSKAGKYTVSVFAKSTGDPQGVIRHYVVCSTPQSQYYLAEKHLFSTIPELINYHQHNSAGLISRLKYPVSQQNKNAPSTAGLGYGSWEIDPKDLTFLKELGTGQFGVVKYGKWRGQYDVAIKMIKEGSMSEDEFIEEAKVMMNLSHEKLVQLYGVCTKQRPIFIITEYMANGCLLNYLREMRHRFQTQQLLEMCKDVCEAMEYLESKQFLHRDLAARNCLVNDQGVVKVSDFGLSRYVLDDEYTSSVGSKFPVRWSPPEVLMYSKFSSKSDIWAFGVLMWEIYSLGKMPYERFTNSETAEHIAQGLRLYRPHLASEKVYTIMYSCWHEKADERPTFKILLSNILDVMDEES
row,Compound,IC50 [nM]
1,"Cc1nc(N)sc1-c1ccc(C(N)=O)c2[nH]c3c(c12)CCC(C(=O)NC1CCOCC1)C3 (stereo not drawn) [Example 4-3, 5-(2-amino-4-methylthiazol-5-yl)-N^2-(tetrahydro-2H-pyran-4-yl)-2,3,4,9-tetrahydro-1H-carbazole-2,8-dicarboxamide]",390
2,"7-(1,2-dihydroxyethyl)-4-(2-methyl-3-(6-methyl-1-oxoisoindolin-2-yl)phenyl)-9H-carbazole-1-carboxamide^[b] [Example 70-12]",1.3
3,"Cc1c(-c2ccc(C(N)=O)c3[nH]c4c(c23)CCC(CO)C4)cccc1N1C(=O)c2ccc(C(C)(C)C)cc2C1=O (stereo not drawn) [Example 31-2, 5-(3-(5-tert-butyl-1,3-dioxoisoindolin-2-yl)-2-methylphenyl)-2-(hydroxymethyl)-2,3,4,9-tetrahydro-1H-carbazole-8-carboxamide]",700
4,CN1CCN(C(=O)c2ccc3c(c2)[nH]c2c(C(N)=O)ccc(-c4cccc5cccnc45)c23)CC1 [Example 3-19],1800
5,"CC(=O)NCc1ccc2c(c1)[nH]c1c(C(N)=O)ccc(-c3cccc(N4Cc5ccc(F)cc5C4=O)c3C)c12 [Example 38-2, 7-(acetamidomethyl)-4-(3-(6-fluoro-1-oxoisoindolin-2-yl)-2-methylphenyl)-9H-carbazole-1-carboxamide]",2.1
6,Cc1c(-c2ccc(C(N)=O)c3[nH]c4c(c23)CCC(C(=O)N(C)C2CCN(C)CC2)C4)cccc1N1Cc2ccc(C(F)(F)F)cc2C1=O (stereo not drawn) [Example 3-130],2
7,"CN1CCN(C(=O)c2ccc3c(c2)[nH]c2c(C(N)=O)ccc(-c4nccc5ccccc45)c23)CC1 [Example 2-2, 4-(isoquinolin-1-yl)-7-(4-methylpiperazine-1-carbonyl)-9H-carbazole-1-carboxamide]",1300
8,Cc1c(-c2ccc(C(N)=O)c3[nH]c4c(c23)CCC(C(C)(C)O)C4)cccc1-n1cnc2cccc(F)c2c1=O (stereo not drawn) [Example 76-41],18
9,CN1CCN(C(=O)c2ccc3c(c2)[nH]c2c(C(N)=O)ccc(-c4cccc5c4oc4ccccc45)c23)CC1 [Example 3-49],690
10,"CN1CCN(C(=O)c2ccc3c(c2)[nH]c2c(C(N)=O)ccc(-c4cc(F)ccc4F)c23)CC1 [Example 2-12, 4-(2,5-difluorophenyl)-7-(4-methylpiperazine-1-carbonyl)-9H-carbazole-1-carboxamide]",16
11,"CN1CCN(C(=O)c2ccc3c(c2)[nH]c2c(C(N)=O)ccc(-c4cc(NC(=O)c5ccc(F)cc5)ccn4)c23)CC1 [Example 2-43, 4-(4-(4-fluorobenzamido)pyridin-2-yl)-7-(4-methylpiperazine-1-carbonyl)-9H-carbazole-1-carboxamide]",520
12,"CN1CCN(C(=O)c2ccc3c(c2)[nH]c2c(C(N)=O)ccc(-c4cc(Cl)ccc4F)c23)CC1 [Example 2-13, 4-(5-chloro-2-fluorophenyl)-7-(4-methylpiperazine-1-carbonyl)-9H-carbazole-1-carboxamide]",15
13,"CN1CCN(C(=O)c2ccc3[nH]c4c(C(N)=O)ccc(-c5ccccc5F)c4c3c2)CC1 [Example 2-18, 4-(2-fluorophenyl)-6-(4-methylpiperazine-1-carbonyl)-9H-carbazole-1-carboxamide]",16
14,"CN1CCN(C(=O)c2ccc3c(c2)[nH]c2c(C(N)=O)ccc(-c4cccc5[nH]c(C(=O)Nc6ccc(F)cc6)cc45)c23)CC1 [Example 2-25, 4-(2-(4-fluorophenylcarbamoyl)-1H-indol-4-yl)-7-(4-methylpiperazine-1-carbonyl)-9H-carbazole-1-carboxamide]",3100
15,Cc1c(-c2ccc(C(N)=O)c3[nH]c4cc(C(C)(C)O)ccc4c23)cccc1N1CCc2cc(F)ccc2C1=O [Example 81-20],2.2
16,"Cc1c(-c2ccc(C(N)=O)c3[nH]c4cc(C(=O)N5CCN(C)CC5)ccc4c23)cccc1N(C(C)C)S(C)(=O)=O (single isomer, unassigned) [Example 10-2, 4-(3-(N-isopropylmethylsulfonamido)-2-methylphenyl)-7-(4-methylpiperazine-1-carbonyl)-9H-carbazole-1-carboxamide]",4500
17,Cc1c(-c2ccc(C(N)=O)c3[nH]c4cc(NC(=O)C(C)(C)C)ccc4c23)cccc1N1Cc2cc(F)ccc2C1=O [Example 66-34],16
18,"NC(=O)c1ccc(-c2ccccc2F)c2c1[nH]c1cc(C(=O)N3CCOCC3)ccc12 [Example 3-9, 4-(2-fluorophenyl)-7-(morpholine-4-carbonyl)-9H-carbazole-1-carboxamide]",17
19,"Cc1c(NC(=O)c2ccc(F)cc2)cccc1-c1ccc(C(N)=O)c2[nH]c3cc(N(Cc4ccccc4)Cc4ccccc4)ccc3c12 [Example 54-7, 7-(dibenzylamino)-4-(3-(4-fluorobenzamido)-2-methylphenyl)-9H-carbazole-1-carboxamide]",830
20,"CC(=O)OCC1CCc2c([nH]c3c(C(N)=O)ccc(-c4cccc(N5C(=O)c6ccc(C(C)(C)C)cc6C5=O)c4C)c23)C1 (stereo not drawn) [Example 31-3, (5-(3-(5-tert-butyl-1,3-dioxoisoindolin-2-yl)-2-methylphenyl)-8-carbamoyl-2,3,4,9-tetrahydro-1H-carbazol-2-yl)mEtOAc]",1500
21,Cc1c(-c2ccc(C(N)=O)c3[nH]c4c(c23)CCC(C(C)(C)O)C4)cccc1N1Cc2ccc(C(F)(F)F)cc2C1=O (stereo not drawn) [Example 76-44],18
22,CN1CCN(C(=O)c2ccc3c(c2)[nH]c2c(C(N)=O)ccc(-c4ccccc4Cl)c23)CC1 [Example 3-69],15
23,NC(=O)c1ccc(-c2ccccc2F)c2c1[nH]c1ccc(Oc3ccccc3)cc12 [Example 48-2],1700
24,Cc1c(Nc2ncnc3ccc(F)cc23)cccc1-c1ccc(C(N)=O)c2[nH]c3cc(N4CCCC4=O)ccc3c12 [Example 79-3],15
25,"CC(C)(O)C1CCc2c([nH]c3c(C(N)=O)ccc(Br)c23)C1 (stereo not drawn) [Example 73-1, 5-bromo-2-(2-hydroxypropan-2-yl)-2,3,4,9-tetrahydro-1H-carbazole-8-carboxamide]",540
26,Cc1c(NC(=O)C2(c3ccc(F)cc3)CC2)cccc1-c1ccc(C(N)=O)c2[nH]c3cc(C(=O)N4CCN(C)CC4)ccc3c12 [Example 5-42],15
27,Cc1c(Nc2ncnc3cc(F)ccc23)cccc1-c1ccc(C(N)=O)c2[nH]c3cc(N4CCCC4=O)ccc3c12 [Example 79-4],16
28,"CN1CCN(C(=O)c2ccc3c(c2)[nH]c2c(C(N)=O)ccc(N4CCCCC4=O)c23)CC1 [Example 20-1, 7-(4-methylpiperazine-1-carbonyl)-4-(2-oxopiperidin-1-yl)-9H-carbazole-1-carboxamide]",510
29,"Cc1c(-c2ccc(C(N)=O)c3[nH]c4cc(NC(=O)OCc5ccccc5)ccc4c23)cccc1N1Cc2cc(C(C)(C)C)ccc2C1=O [Example 51-4, benzyl 5-(3-(5-tert-butyl-1-oxoisoindolin-2-yl)-2-methylphenyl)-8-carbamoyl-9H-carbazol-2-ylcarbamate]",1600

# Other lines, results leading:
row,IC50 [nM],Compound
1,1.8,Cc1c(-c2ccc(C(N)=O)c3[nH]c4cc(C(C)(C)O)ccc4c23)cccc1N1Cc2ccncc2C1=O [Example 76-18]
2,1.9,"Cc1c(-c2ccc(C(N)=O)c3[nH]c4cc(NC(C)C)ccc4c23)cccc1-n1ccn2ccnc2c1=O [Example 80-1, 7-(isopropylamino)-4-(2-methyl-3-(8-oxoimidazo[1,2-a]pyrazin-7(8H)-yl)phenyl)-9H-carbazole-1-carboxamide]"
3,2.2,Cc1c(NC(=O)c2ccc(F)cc2)cccc1-c1ccc(C(N)=O)c2[nH]c3cc(NC4CCN(C)CC4)ccc3c12 [Example 61-2]
4,1.7,Cc1c(NC(=O)c2ccc(F)cc2)cccc1-c1ccc(C(N)=O)c2[nH]c3cc(CN4CCCC4)ccc3c12 [Example 39-4]
5,18,"Cc1c(NC(=O)C2(C#N)CC2)cccc1-c1ccc(C(N)=O)c2[nH]c3cc(C(=O)N4CCN(C)CC4)ccc3c12 [Example 5-73, 4-(3-(1-cyanocyclopropanecarboxamido)-2-methylphenyl)-7-(4-methylpiperazine-1-carbonyl)-9H-carbazole-1-carboxamide (prepared as the TFA salt)]"
6,1.6,Cc1c(NC(=O)c2nccn2C)cccc1-c1ccc(C(N)=O)c2[nH]c3cc(C(O)CO)ccc3c12 (stereo not drawn) [Example 78-2]
7,520,"Cc1c(NC(=O)c2ccc(F)cn2)cccc1-c1ccc(C(N)=O)c2[nH]c3cc(NC(=O)OCc4ccccc4)ccc3c12 [Example 52-1, benzyl 8-carbamoyl-5-(3-(5-fluoropicolinamido)-2-methylphenyl)-9H-carbazol-2-ylcarbamate]"
8,15,Cc1c(NC(=O)c2ccc(F)cc2)cccc1-c1ccc(C(N)=O)c2[nH]c3cc(NC(=O)Cc4ccncc4)ccc3c12 [Example 57-13]
9,17,"Cc1c(NC(=O)c2ccc(F)cc2)cccc1-c1ccc(C(N)=O)c2[nH]c3cc(C(N)=O)ccc3c12 [Example 24-1, 4-(3-(4-fluorobenzamido)-2-methylphenyl)-9H-carbazole-1,7-dicarboxamide]"
10,17,"Cc1c(NC(=O)c2ncccc2O)cccc1-c1ccc(C(N)=O)c2[nH]c3cc(C(=O)N4CCN(C)CC4)ccc3c12 [Example 5-19, 4-(3-(3-hydroxypicolinamido)-2-methylphenyl)-7-(4-methylpiperazine-1-carbonyl)-9H-carbazole-1-carboxamide (prepared as the TFA salt)]"
11,2.2,"Cc1ccc(C(=O)Nc2cccc(-c3ccc(C(N)=O)c4[nH]c5cc(C(=O)N6CCN(C)CC6)ccc5c34)c2C)cc1 [Example 5-58, 4-(2-methyl-3-(4-methylbenzamido)phenyl)-7-(4-methylpiperazine-1-carbonyl)-9H-carbazole-1-carboxamide (prepared as the TFA salt)]"
12,1.6,"Cc1ccc2c(c1)C(=O)N(c1cccc(-c3ccc(C(N)=O)c4[nH]c5cc(C(O)CO)ccc5c34)c1C)C2 (racemic) [Example 70-5, 7-((RS)-1,2-dihydroxyethyl)-4-(2-methyl-3-(6-methyl-1-oxoisoindolin-2-yl)phenyl)-9H-carbazole-1-carboxamide]"
13,1.8,Cc1c(NC(=O)c2ccc(F)cc2)cccc1-c1ccc(C(N)=O)c2[nH]c3cc(NC(=O)CN)ccc3c12 [Example 57-37]
